Measurements taken from the supplement of paper PMC10307832.

Tests used:
Assay in all cases: relative viability (nuclei count vs DMSO), 5 days (fraction); higher = more cells survive
[1] = compound: CC(C)C[C@H](NC(=O)[C@H](Cc1ccccc1)NC(=O)c1cnccn1)B(O)O [Bortezomib] + COc1cccc2cc(-c3nc([C@H]4CC[C@H](C(=O)O)CC4)n4ncnc(N)c34)[nH]c12 [OSI-027] (partner 0.5 µM)
Summary of the method: (§1)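 Lung cancer cell lines, seeded in 1536-well plates, were treated the following day by pin tool with a single drug or with five library-drug doses (not always all listed) in √10 steps on top of a fixed anchor-drug dose. Cells were fixed and nuclei stained in one step after 5 days, and nuclei were counted. Relative viability is the nuclei count for treated wells divided by that for vehicle wells, reported as medians of duplicate plates.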

[2] = compound: CC(C)C[C@H](NC(=O)[C@H](Cc1ccccc1)NC(=O)c1cnccn1)B(O)O [Bortezomib] + Cc1nc(Nc2ncc(C(=O)Nc3c(C)cccc3Cl)s2)cc(N2CCN(CCO)CC2)n1 [Dasatinib] (partner 0.075 µM)
Summary of the method: as §1

[3] = compound: COC1=CC(c2cc3ccccc3[nH]2)=N/C1=C\c1[nH]c(C)cc1C [Obatoclax] + CS(=O)(=O)CCNCc1ccc(-c2ccc3ncnc(Nc4ccc(OCc5cccc(F)c5)c(Cl)c4)c3c2)o1 [Lapatinib] (partner 2 µM)
Summary of the method: as §1

[4] = compound: COC1=CC(c2cc3ccccc3[nH]2)=N/C1=C\c1[nH]c(C)cc1C [Obatoclax] + O=C(CCCCCCC(=O)Nc1ccccc1)NO [Vorinostat] (partner 1 µM)
Summary of the method: as §1

## NCI-H650
[1]; first compound 0.000632 µM
  relative viability: 0.522
[1]; first compound 0.002 µM
  relative viability: 0.536
[1]; first compound 0.006325 µM
  relative viability: 0.595
[1]; first compound 0.02 µM
  relative viability: 0.207
[2]; first compound 0.000632 µM
  relative viability: 0.503
[2]; first compound 0.002 µM
  relative viability: 0.428
[2]; first compound 0.006325 µM
  relative viability: 0.268
[2]; first compound 0.02 µM
  relative viability: 0.16
[3]; first compound 0.01 µM
  relative viability: 1.04
[3]; first compound 0.03162 µM
  relative viability: 0.811
[3]; first compound 0.1 µM
  relative viability: 0.438
[3]; first compound 0.3162 µM
  relative viability: 0.511
[3]; first compound 1 µM
  relative viability: 0.457
[4]; first compound 0.01 µM
  relative viability: 0.439
[4]; first compound 0.03162 µM
  relative viability: 0.444
[4]; first compound 0.3162 µM
  relative viability: 0.418
[4]; first compound 1 µM
  relative viability: 0.384
